# Patent publication US11046722B2, “Sulphated disaccharides for the treatment of neuropathic pain” (BIOIBERICA, S.A.U., priority 2017, dated 2021)
# Assays:
# [1] = tested on: allodynia induced in mice by injecting paclitaxel; experiment: Neuropathic pain induced by chemotherapy (paclitaxel): reversal by a single dose after induction; type: in vivo; details: paclitaxel 2 mg/Kg i.p. for 5 days, day 10, single oral dose, increasing doses 7.5, 15 and 30 mg/Kg, 45 minutes after administration
# Experimental: (§1) In Example 3 an experimental model is used in mice based on inducing allodynia by intraperitoneal injection of paclitaxel, as described in the articles by Smith et al., Paclitaxel-induced neuropathic hypersensitivity in mice: responses in 10 inbred mouse strains, Life Sci., 2014, 2593-2604 and Palomano et al., Chemotherapy-evoked painful peripheral neuropathy, Pain Med., 2001, 2 (1), 8-14. In alternative trials, compound Ic was administered after allodynia induction by paclitaxel, or it was administered jointly with this chemotherapy medication. It is observed that compound Ic is effective at both reversing the allodynia induced by paclitaxel (FIG. 4), and preventing the development thereof when coadministered with paclitaxel (FIG. 5).
# In this test, groups of mice between 7 and 12 animals were used, to which a daily dose of paclitaxel of 2 mg/Kg was administered by intraperitoneal route for 5 consecutive days (except for the control group). The evaluation of the induced mechanical allodynia was carried out on the 10th day after the first paclitaxel injection, and was quantified by using the von Frey filaments, according to the force threshold necessary to cause the paw withdrawal of the animal. […]
# [2] = tested on: allodynia induced in mice by injecting paclitaxel; experiment: Neuropathic pain induced by chemotherapy (paclitaxel): prevention by coadministration with paclitaxel; type: in vivo; details: 30 mg/Kg orally daily for 5 consecutive days coadministered with paclitaxel, evaluated on the 10th day
# Experimental: as §1, with “It is observed that compound Ic is effective at both reversing the allodynia induced by paclitaxel (FIG. 4), and preventing the development thereof when coadministered with paclitaxel (FIG. 5).” left out
# In this test, groups of mice between 7 and 12 animals were used, to which a daily dose of paclitaxel of 2 mg/Kg was administered by intraperitoneal route for 5 consecutive days (except for the control group). The evaluation of the induced mechanical allodynia was carried out on the 10th day after the first paclitaxel injection, and was quantified by using the von Frey filaments, according to the force threshold necessary to cause the paw withdrawal of the animal.
# A second trial was carried out using this same model, according to which a daily dose of compound Ic was administered orally, for 5 consecutive days, coadministered with paclitaxel. The allodynia was evaluated the 10th day after the beginning of the treatment. […]
smiles,measurement,setting,value
"CO[C@H]1O[C@H](COS(=O)(=O)[O-])[C@@H](OS(=O)(=O)[O-])[C@H](O[C@@H]2O[C@H](C(=O)[O-])[C@@H](O)[C@H](O)[C@H]2O)[C@H]1NC(C)=O.[Na+].[Na+].[Na+] [Compound Ic, methyl 2-acetamido-2-desoxi-3-O-(β-D-glucopyranosyluronic acid)-4,6-di-O-sulfo-α-D-glucopyranoside trisodium salt]",reversal of paclitaxel-induced allodynia,[1],reversed the paclitaxel-induced allodynia
same,prevention of the development of allodynia,[2],prevented the development of allodynia
